Patent publication US7244738B2, “Arylamine-substituted quinazolinone compounds useful as alpha 1A/B adrenergic receptor antagonists” (Roche Palo Alto LLC, priority 2003, dated 2007)
Where a name gives a salt, the structure may show the parent alone.

| SMILES | melting point |
| --- | --- |
| COc1cc2[nH]c(N(C)Cc3ccc(CN4CCC(O)C4)cc3)nc(=O)c2c(C)c1OC (stereo not drawn) | 166 to 169 °C |
| COc1cc2[nH]c(N(C)Cc3cccc(N4CCCC4)c3)nc(=O)c2cc1OC.Cl | 220 to 223 °C |
| COc1ccc(CN(C)c2nc(=O)c3c(OC)c(OC)c(OC)cc3[nH]2)cc1OCC(CO)CO (as salt: HCl) [Example 3, 2-{[3-(3-Hydroxy-2-hydroxymethyl-propoxy)-4-methoxy-benzyl]-methyl-amino}-5,6,7-trimethoxy-1H-quinazolin-4-one] | 139.7 to 146.6 °C |
| COc1cc2[nH]c(N(C)Cc3cccc(OCC(O)CO)c3)nc(=O)c2c(C)c1OC (stereo not drawn) (as salt: HCl) [Example 7, 2-{[3-(2,3-Dihydroxy-propoxy)-benzyl]-methyl-amino}-6,7-dimethoxy-5-methyl-1H-quinazolin-4-one] | 220 to 224 °C |
| COc1cc2[nH]c(N(C)Cc3ccc(OCC(CO)CO)cc3)nc(=O)c2c(C)c1OC (as salt: HCl) [Example 15, 2-{[4-(3-Hydroxy-2-hydroxymethyl-propoxy)-benzyl]-methyl-amino}-6,7-dimethoxy-5-methyl-1H-quinazolin-4-one] | 197.5 to 199 °C |
| COCCNCc1ccc(CN(C)c2nc(=O)c3c(C)c(OC)c(OC)cc3[nH]2)cc1 (as salt: HCl) [Example 36, 6,7-Dimethoxy-2-({4-[(2-methoxy-ethylamino)-methyl]-benzyl}-methyl-amino)-5-methyl-1H-quinazolin-4-one] | 265 to 268 °C |
| COc1cc2[nH]c(N(C)Cc3ccc(CN)cc3)nc(=O)c2c(C)c1OC (as salt: HCl) [Example 42, 2-[(4-Aminomethyl-benzyl)-methyl-amino]-6,7-dimethoxy-5-methyl-1H-quinazolin-4-one] | 248.2 to 249.4 °C |
| COc1cc2[nH]c(N(C)Cc3ccc(OCCCN(C)C)cc3)nc(=O)c2c(C)c1OC (as salt: HCl) [Example 44, 2-{[4-(3-Dimethylamino-propoxy)-benzyl]-methyl-amino}-6,7-dimethoxy-5-methyl-1H-quinazolin-4-one] | 191 to 192.2 °C |
| CNCc1ccc(CN(C)c2nc(=O)c3c(C)c(OC)c(OC)cc3[nH]2)cc1 (as salt: HCl) [Example 55, 6,7-Dimethoxy-5-methyl-2-[methyl-(4-methylaminomethyl-benzyl)-amino]-1H-quinazolin-4-one] | 264 to 268 °C |
| COc1cc2[nH]c(N(C)Cc3cccc(/N=C/N(C)C)c3)nc(=O)c2cc1OC (as salt: HCl) [Example 86, N′-(3-{[(6,7-Dimethoxy-4-oxo-1,4-dihydro-quinazolin-2-yl)-methyl-amino]-methyl}-phenyl)-N,N-dimethyl-formamidine] | 242 to 245 °C |

Other lines, results leading:

| melting point | SMILES |
| --- | --- |
| 145 °C | COCC/C(=N\c1cccc(CN(C)c2nc(=O)c3c(OC)c(OC)c(OC)cc3[nH]2)c1)N(C)C.Cl |
| 181.5 to 189.4 °C | COc1cc2[nH]c(N(C)Cc3cccc(C4CCN(C)CC4)c3)nc(=O)c2c(OC)c1OC.Cl |
| 172.9 to 175.9 °C | COc1cc2[nH]c(N(C)Cc3cccc(N4CCC(O)C4=O)c3)nc(=O)c2c(OC)c1OC (stereo not drawn) (as salt: HCl) [Example 22, 2-{[3-(3-Hydroxy-2-oxo-pyrrolidin-1-yl)-benzyl]-methyl-amino}-5,6,7-trimethoxy-1H-quinazolin-4-one] |
| > 300 °C (dec.) | COc1cc2[nH]c(N(C)Cc3ccccc3N)nc(=O)c2c(OC)c1OC (as salt: HCl) [Example 104, 2-[(2-Amino-benzyl)-methyl-amino]-5,6,7-trimethoxy-1H-quinazolin-4-one] |
| 169 to 171.9 °C | COc1cc2[nH]c(N(C)Cc3cccc(CN(C)CCO)c3)nc(=O)c2c(OC)c1OC (as salt: HCl) [Example 116, 2-[(3-{[(2-Hydroxy-ethyl)-methyl-amino]-methyl}-benzyl)-methyl-amino]-5,6,7-trimethoxy-1H-quinazolin-4-one] |
